Measured values as given in patent US20240352145A1, “EFFICACY OF ANTI-TROP-2-SN-38 ANTIBODY DRUG CONJUGATES FOR THERAPY OF TUMORS RELAPSED/REFRACTORY TO CHECKPOINT INHIBITORS” (Immunomedics, Inc., priority 2016, published 2024).
pIC50: −log10 of the molar value.

Assays:
SK-BR-3 = experiment: SN-38 sensitivity (MTS), SK-BR-3; assay type: cell-based, human; conditions: SK-BR-3 (HER2+), 96 h
Procedure: (§1) In vitro cytotoxicity testing—Sensitivity to SN-38 was determined using the 3-(4,5-dimethylthiazol-2-yl)-5-(3-carboxymethoxyphenyl)-2-(4-sulfophenyl)-2H-tetrazolium dye reduction assay (MTS dye reduction assay; Promega, Madison, WI). Briefly, cells were plated into 96-well clear, flat-bottomed plates as described above. SN-38 dissolved in DMSO was diluted with media to a final concentration of 0.004 to 250 nM. […] Growth inhibition was measured as a percent of growth relative to untreated cells. Dose-response curves were generated from the mean of triplicate determinations, and IC50-values were calculated using Prism GraphPad Software.

BxPC-3 [1] = experiment: Cytotoxicity (MTS), Example 7, BxPC-3; assay type: cell-based, human; conditions: BxPC-3, 96 h
Procedure: (§2) One day prior to adding the ADC, cells were harvested from tissue culture and plated into 96-well plates at 2000 cells per well. […] Plates were incubated at 37° C. for 96 h. […] Growth inhibition was measured as a percent of growth relative to untreated cells using Microsoft Excel and Prism software (non-linear regression to generate sigmoidal dose response curves which yield IC50-values).

COLO 205 = experiment: In vitro cytotoxicity, COLO 205
Text: (§3) Cell lines, antibodies, and chemotherapeutics—All human cancer cell lines used in this study were purchased from the American Type Culture Collection.

MDA-MB-231 = experiment: SN-38 sensitivity (MTS), MDA-MB-231; assay type: cell-based, human; conditions: MDA-MB-231 (TNBC), 96 h
Procedure: as §1

PARP = experiment: Immunoblotting, apoptosis signaling, NCI-N87 and BxPC-3; assay type: cell-based, human; conditions: evident at 24 h, increased at 48 h
Procedure: Immunoblotting—Cells (2×10^6) were plated in 6-well plates overnight. […] Parental hRS7 was used as a control for the ADC. Cells were lysed in buffer containing 10 mM Tris, pH 7.4, 150 mM NaCl, protease inhibitors and phosphatase inhibitors (2 mM […], 10 mM NaF). A total of 20 μg protein was resolved in a 4-20% SDS polyacrylamide gel, transferred onto a nitrocellulose membrane and blocked by 5% non-fat milk in 1×TBS-T (Tris-buffered saline, 0.1% Tween-20) for 1 h at room temperature. Membranes were probed overnight at 4° C. with primary antibodies followed by 1-h incubation with antirabbit secondary antibody (1:2500) at room temperature. Signal detection was done using a chemiluminescence kit (Supersignal West Dura, Thermo Scientific; Rockford, IL) with the membranes visualized on a Kodak Image Station […]. Primary antibodies p21Waf1/Cip1 (Cat. No. 2947), Caspase-3 (Cat. No. 9665), Caspase-7 (Cat. No. 9492), Caspase-9 (Cat. No. 9502), PARP (Cat. No. 9542), 3-actin (Cat. No. 4967), pJNK1/2 (Cat. No. 4668), JNK (Cat. No. 9258), and goat anti-rabbit-HRP secondary antibody (Cat. No. 7074) were obtained from Cell Signal Technology (Danvers, MA).

BxPC-3 [2] = experiment: Cytotoxicity (MTS), Example 6, BxPC-3; assay type: cell-based, human; conditions: BxPC-3, 96 h
Procedure: as §2, with “ADCs,” for “ADC,”, “plates.” for “plates at 2000 cells per well.”, “IC50-values.” for “IC50-values).”

NCI-N87 = experiment: Cytotoxicity (MTS), Example 6, NCI-N87; assay type: cell-based, human; conditions: NCI-N87, 96 h
Procedure: as §2, with “ADCs,” for “ADC,”, “plates.” for “plates at 2000 cells per well.”, “IC50-values.” for “IC50-values).”

HCC38 = experiment: SN-38 sensitivity (MTS), HCC38; assay type: cell-based, human; conditions: HCC38 (TNBC), 96 h
Procedure: as §1

BxPC-3 [3] = experiment: In vitro cytotoxicity, BxPC-3
Text: as §3

SK-MES-1 = experiment: In vitro cytotoxicity, SK-MES-1
Text: as §3

p21^WAF1/Cip1 = experiment: Immunoblotting, apoptotic pathway, MDA-MB-468; assay type: cell-based, human; conditions: MDA-MB-468, by 48 h
Procedure: Immunoblotting—Cells (2×10^6) were plated in 6-well plates overnight. […] Parental hRS7 was used as a control for the ADC.

p21^Waf1/Cip1 and p53 [4] = experiment: Signaling events (p21Waf1/Cip1, p53) in BxPC-3; assay type: cell-based, human
Text: (§4) Our initial studies examined the expression of 2 proteins involved in early signaling events (p21^Waf1/Cip1 and p53) and 1 late apoptotic event [cleavage of poly-ADP-ribose polymerase (PARP)] in vitro (not shown).

MDA-MB-468 [5] = experiment: Cytotoxicity (MTS), Example 7, MDA-MB-468; assay type: cell-based, human; conditions: MDA-MB-468, 96 h
Procedure: as §2

Capan-1 [6] = experiment: Cytotoxicity (MTS), Example 6, Capan-1; assay type: cell-based, human; conditions: Capan-1, 96 h
Procedure: as §2, with “ADCs,” for “ADC,”, “plates.” for “plates at 2000 cells per well.”, “IC50-values.” for “IC50-values).”

MDA-MB-468 [7] = experiment: SN-38 sensitivity (MTS), MDA-MB-468; assay type: cell-based, human; conditions: MDA-MB-468 (TNBC), 96 h
Procedure: as §1

HCC1806 = experiment: SN-38 sensitivity (MTS), HCC1806; assay type: cell-based, human; conditions: HCC1806 (TNBC), 96 h
Procedure: as §1

Calu-3 = experiment: In vitro cytotoxicity, Calu-3
Text: as §3

p21^Waf1/Cip1 and p53 [8] = experiment: Signaling events (p21Waf1/Cip1, p53) in Calu-3; assay type: cell-based, human
Text: as §4

PC-3 = experiment: In vitro cytotoxicity, PC-3
Text: as §3

Capan-1 [9] = experiment: In vitro cytotoxicity, Capan-1
Text: as §3

MCF-7 = experiment: SN-38 sensitivity (MTS), MCF-7; assay type: cell-based, human; conditions: MCF-7 (ER+), 96 h
Procedure: as §1

CCc1c2c(nc3ccc(O)cc13)-c1cc3c(c(=O)n1C2)COC(=O)[C@]3(O)CC [SN-38, 7-ethyl-10-hydroxycamptothecin] showed a pIC50 (SK-BR-3) of 8.70, a pIC50 (BxPC-3 [1]) of 8.80 and a pIC50 (COLO 205) of 8.99. The pIC50 (MDA-MB-231) was 8.22, the PARP cleavage (PARP) was “mediated PARP cleavage” and the pIC50 (BxPC-3 [2]) was 9.00. It also gave a pIC50 (NCI-N87) of 8.37, a pIC50 (HCC38) of 8.70 and a pIC50 (BxPC-3 [3]) of 8.84. The pIC50 (SK-MES-1) was 8.06, the “decrease of p21WAF1/Cip1” value (p21^WAF1/Cip1) was 31% and the “exposure time at which p53 upregulation is evident” value (p21^Waf1/Cip1 and p53 [4]) was 48 h. For the same compound, the “increase in p21Waf1/Cip1 expression” value (p21^Waf1/Cip1 and p53 [4]) was 20 fold, the pIC50 (MDA-MB-468 [5]) was 9.10 and the pIC50 (Capan-1 [6]) was 9.00. The pIC50 (MDA-MB-468 [7]) was 8.70, the pIC50 (HCC1806) was 9.00 and the pIC50 (Calu-3) was 8.14. For the same compound, the “exposure time at which p53 upregulation is evident” value (p21^Waf1/Cip1 and p53 [8]) was 48 h, the pIC50 (PC-3) was 8.73 and the pIC50 (Capan-1 [9]) was 8.46. The pIC50 (MCF-7) was 7.48.
